Molecular target: T1, SIRT1 deacetylase (BIOMOL) (Homo sapiens, UniProt Q96EB6)
T1 construct: purchased BIOMOL
T1 sequence (Q96EB6 1-747): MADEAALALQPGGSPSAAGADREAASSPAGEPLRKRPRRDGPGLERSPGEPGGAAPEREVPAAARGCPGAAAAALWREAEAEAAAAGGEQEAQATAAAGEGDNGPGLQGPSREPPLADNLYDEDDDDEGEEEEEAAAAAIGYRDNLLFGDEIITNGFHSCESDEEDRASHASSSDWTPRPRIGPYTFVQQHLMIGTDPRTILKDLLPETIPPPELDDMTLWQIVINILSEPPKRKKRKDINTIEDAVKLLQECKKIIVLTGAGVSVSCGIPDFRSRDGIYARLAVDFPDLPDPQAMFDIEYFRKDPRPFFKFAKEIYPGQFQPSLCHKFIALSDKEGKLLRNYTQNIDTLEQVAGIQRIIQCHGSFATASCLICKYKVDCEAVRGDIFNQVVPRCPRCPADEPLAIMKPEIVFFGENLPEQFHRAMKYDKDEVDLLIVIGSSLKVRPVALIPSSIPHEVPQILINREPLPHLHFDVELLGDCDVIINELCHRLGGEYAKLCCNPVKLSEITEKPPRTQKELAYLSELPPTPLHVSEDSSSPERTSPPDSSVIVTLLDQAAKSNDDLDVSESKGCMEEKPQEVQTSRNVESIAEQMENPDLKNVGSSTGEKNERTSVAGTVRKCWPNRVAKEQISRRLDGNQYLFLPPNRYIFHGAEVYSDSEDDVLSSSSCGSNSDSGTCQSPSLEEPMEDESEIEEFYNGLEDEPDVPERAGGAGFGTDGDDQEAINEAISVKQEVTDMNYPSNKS
Test: High-throughput SIRT1 screening protocol (Fluor de Lys-SIRT1, 384 well)
Assay type: biochemical
Conditions: positive controls; roughly 50 μM, 200 μM NAD+, 5 μM Fluor de Lys-SIRT1
Experimental: The reaction mixture contains (final): 0.5 units/reaction SIRT1 deacetylase (BIOMOL); 200 μM NAD^+; 5 μM Fluor de Lys-SIRT1 substrate (BIOMOL); buffer (25 mM Tris/Cl, pH 8.0, 137 mM NaCl, 2.7 mM KCl, 1 mM MgCl2, and 1 mg/ml BSA). In addition, a reaction mixture containing no enzyme was made so that each well receiving compound has a corresponding “no enzyme control” well. Reactions were performed in black 384 well plates (NUNC) in a final volume of 25 μl/well.
The reactions were started by combining enzyme and substrate in a reaction mixture immediately prior to aliquoting in plates (or substrate only for “no enzyme control” plates). Mixture were aliquoted to plates using Biotek μFill (Biotek Instruments). Control mixtures were manually added to designated wells. A library compound was added at a desired concentration by pin transfer to both “with enzyme” and “no enzyme” plates. Compounds were added in at least triplicate (with enzyme reaction in duplicate and no enzyme controls) at a final concentration of roughly 50 μM. The plates were incubated at 37° C. for 30-60 minutes. Then 25 μl of 1× Developer II (BIOMOL) plus 2 mM nicotinamide were added to all wells to stop the reactions. The reactions were left for at least 30 minutes at 37° C. for the signal to develop. The plates were read in a microplate-reading fluorometer capable of excitation at a wavelength in the range of 350-380 nm and detection of emitted light in the range of 440-460 nm. A read time of 0.1 sec per well was used.

Oc1ccc(/C=C/c2cc(O)cc(O)c2)cc1 [Resveratrol, 3,5,4′-Trihydroxy-trans-stilbene]
Activation of SIRT1: 2.2 fold

— patent publication US20060276416A1, “Methods and compositions for treating flushing and drug induced weight gain” (Sirtris Pharmaceuticals, Inc., priority 2005, published 2006)
